Test results from article PMC8976068, “Structural basis to repurpose boron-based proteasome inhibitors Bortezomib and Ixazomib as β-lactamase inhibitors” (Scientific Reports, 2022).
Where two headings read alike, the source gives them in different places.

How the values were obtained:
CTX-M-14 β-lactamase [1] = target: T1, CTX-M-14 β-lactamase (Klebsiella pneumoniae, UniProt A0A2S1JJX2); assay: crystal structure ([…] Å, soaking); also purified enzyme inhibition assay, cefotaxime hydrolysis; type: biochemical
CTX-M-14 β-lactamase [2] = target: T1, CTX-M-14 β-lactamase; assay: as above; type: biochemical; remark: listed apart in the source

T1 sequence (A0A2S1JJX2 entry or part of it): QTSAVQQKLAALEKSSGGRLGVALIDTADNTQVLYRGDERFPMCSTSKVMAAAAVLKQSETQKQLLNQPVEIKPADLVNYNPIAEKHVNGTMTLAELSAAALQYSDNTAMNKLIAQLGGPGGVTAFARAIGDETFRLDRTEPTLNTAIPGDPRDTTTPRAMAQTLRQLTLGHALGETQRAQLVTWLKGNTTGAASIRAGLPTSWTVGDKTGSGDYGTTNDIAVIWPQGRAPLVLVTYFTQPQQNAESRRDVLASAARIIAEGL

| IC50 (CTX-M-14 β-lactamase [1]) [µM] | Structure (SMILES) | IC50 (CTX-M-14 β-lactamase [2]) [µM] |
| --- | --- | --- |
| 67 ± 1.4 | CC(C)C[C@H](NC(=O)[C@H](Cc1ccccc1)NC(=O)c1cnccn1)B(O)O [Bortezomib] |  |
|  | CC(C)C[C@H](NC(=O)CNC(=O)c1cc(Cl)ccc1Cl)B(O)O [Ixazomib] | 13 ± 1.2 |
